# Experimental data from US11591355B2 (Peloton Therapeutics, Inc., priority 2017, dated 2023).
# pIC50: −log10 of the molar value.
# Molecular target: T1, Human CD73 (Homo sapiens, UniProt P21589)
# T1 construct: purchased R&D Systems; host or cells: CHO cells
# T1 sequence (P21589 27-549): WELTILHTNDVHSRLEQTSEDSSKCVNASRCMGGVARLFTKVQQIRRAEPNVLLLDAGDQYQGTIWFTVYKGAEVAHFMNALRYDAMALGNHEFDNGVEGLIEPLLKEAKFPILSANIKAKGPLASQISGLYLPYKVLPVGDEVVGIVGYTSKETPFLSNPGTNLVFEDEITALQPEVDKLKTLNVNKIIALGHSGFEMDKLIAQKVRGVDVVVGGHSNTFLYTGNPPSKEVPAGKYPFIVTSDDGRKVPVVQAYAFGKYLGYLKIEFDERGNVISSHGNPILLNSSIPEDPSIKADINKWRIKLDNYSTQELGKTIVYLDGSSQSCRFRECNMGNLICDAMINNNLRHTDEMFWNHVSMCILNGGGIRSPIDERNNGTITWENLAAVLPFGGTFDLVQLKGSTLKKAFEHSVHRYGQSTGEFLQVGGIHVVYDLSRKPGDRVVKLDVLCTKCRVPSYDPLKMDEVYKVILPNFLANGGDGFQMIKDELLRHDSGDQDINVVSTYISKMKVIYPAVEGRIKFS
# Assay: CD73 Enzyme Assay
# Assay type: biochemical
# Conditions: not given
row,SMILES,pIC50
1,O=P(COC[C@H]1O[C@@H](n2ccc3c(NC4CCCC4)nc(Cl)nc32)[C@H](O)[C@@H]1O)(Oc1ccccc1)Oc1ccccc1 [Compound 215],< 6.00
2,"O=P(COC[C@H]1O[C@@H](n2ccc3c(NC4CCCC4)nc(Cl)nc32)[C@H](O)[C@@H]1O)(Oc1ccc(F)cc1)Oc1ccc(F)cc1 [Compound 227, (2R,3S,4R,5R)-2-[bis (4-fluorophenoxy)-phosphorylmethoxy-methyl]-5-[2-chloro-4-(cyclopentylamino)-pyrrolo[2,3-d]-pyrimidin-7-yl]tetra-hydrofuran-3,4-diol]",< 6.00
3,"O=P(O)(COC[C@H]1O[C@@H](n2ccc3c(NC4CCCC4)nc(Cl)nc32)[C@H](O)[C@@H]1O)Oc1ccc(F)cc1 [Compound 228, [(2R,3S,4R,5R)-5-[2-chloro-4-(cyclopentyl-amino)pyrrolo[2,3-d]-pyrimidin-7-yl]-3,4-dihydroxy-tetrahydro-furan-2-yl]methoxy-methyl-(4-fluoro-phenoxy)phosphinic acid]",< 6.00
4,"O=P(O)(COC[C@H]1O[C@@H](n2ccc3c(NC4CCCC4)nc(Cl)nc32)[C@H](O)[C@@H]1O)Oc1cccnc1 [Compound 233, [(2R,3S,4R,5R)-5-[2-chloro-4-(cyclopentyl-amino)pyrrolo[2,3-d]-pyrimidin-7-yl]-3,4-dihydroxy-tetrahydro-furan-2-yl]methoxy-methyl-(3-pyridyloxy)-phosphinic acid]",> 8.00

# Same assay, conditions: 0.25 nM hCD73, 25 μM AMP, kinetic read at 360 nm; read-out: CD73 Enzyme Assay IC50
row,SMILES,pIC50
1,"CC(C)OC(=O)OCOP(=O)(COC[C@H]1O[C@@H](n2ccc3c(NC4CCCC4)nc(Cl)nc32)[C@H](O)[C@@H]1O)OCOC(=O)OC(C)C [Compound 214, [[(2R,3S,4R,5R)-5-[2-chloro-4-(cyclopentyl-amino)pyrrolo[2,3-d]-pyrimidin-7-yl]-3,4-dihydroxy-tetrahydro-furan-2-yl]methoxy-methyl-(isopropoxy-carbonyloxymethoxy)-phosphoryl]oxymethyl-isopropyl carbonate]",< 6.00
2,"C[C@@H](Nc1nc(Cl)nc2c1ncn2[C@@H]1O[C@H](COCP(=O)(O)O)[C@@H](O)[C@@]1(C)O)c1ccccc1 [Compound 216, [(2R,3R,4R,5R)-5-[2-chloro-6-[[(1R)-1-phenylethyl]amino]-purin-9-yl]-3,4-dihydroxy-4-methyl-tetrahydrofuran-2-yl]methoxymethyl-phosphonic acid]",< 6.00
3,"O=P(O)(O)COC[C@H]1O[C@@H](n2ccc3c(N[C@H](CO)c4ccccc4)nc(Cl)nc32)[C@H](O)[C@@H]1O [Compound 217, [(2R,3S,4R,5R)-5-[2-chloro-4-[[(1S)-2-hydroxy-1-phenyl-ethyl]amino]pyrrolo-[2,3-d]pyrimidin-7-yl]-3,4-dihydroxy-tetrahydrofuran-2-yl]methoxymethyl-phosphonic acid]",6.00 to 7.00
4,"CCOC(=O)[C@H](C)NP(=O)(COC[C@H]1O[C@@H](n2ccc3c(NC4CCCC4)nc(Cl)nc32)[C@H](O)[C@@H]1O)N[C@@H](C)C(=O)OCC [Compound 220, ethyl (2S)-2-[[[(2R,3S,4R,5R)-5-[2-chloro-4-(cyclo-pentylamino)pyrrolo-[2,3-d]pyrimidin-7-yl]-3,4-dihydroxy-tetra-hydrofuran-2-yl]-methoxymethyl-[[(1S)-2-ethoxy-1-methyl-2-oxo-ethyl]amino]-phosphoryl]amino]-propanoate]",< 6.00
5,"CC(C)(C)C(=O)COP(=O)(O)COC[C@H]1O[C@@H](n2ccc3c(NC4CCCC4)nc(Cl)nc32)[C@H](O)[C@@H]1O [Compound 223, [(2R,3S,4R,5R)-5-[2-chloro-4-(cyclopentyl-amino)pyrrolo[2,3-d]-pyrimidin-7-yl]-3,4-dihydroxy-tetrahydro-furan-2-yl]methoxy-methyl-(3,3-dimethyl-2-oxo-butoxy)phos-phinic acid]",< 6.00
6,"CC(C)OP(=O)(O)COC[C@H]1O[C@@H](n2ccc3c(NC4CCCC4)nc(Cl)nc32)[C@H](O)[C@@H]1O [Compound 224, [(2R,3S,4R,5R)-5-[2-chloro-4-(cyclopentyl-amino)pyrrolo[2,3-d]-pyrimidin-7-yl]-3,4-dihydroxy-tetrahydro-furan-2-yl]methoxy-methyl-isopropoxy-phosphinic acid]",< 6.00
7,"Cc1oc(=O)oc1COP(=O)(O)COC[C@H]1O[C@@H](n2ccc3c(NC4CCCC4)nc(Cl)nc32)[C@H](O)[C@@H]1O [Compound 225, [(2R,3S,4R,5R)-5-[2-chloro-4-(cyclopentyl-amino)pyrrolo[2,3-d]-pyrimidin-7-yl]-3,4-dihydroxy-tetrahydro-furan-2-yl]methoxy-methyl-[(5-methyl-2-oxo-1,3-dioxol-4-yl)-methoxy]phosphinic acid]",7.00 to 8.00
8,"O=P(COC[C@H]1O[C@@H](n2ccc3c(NC4CCCC4)nc(Cl)nc32)[C@H](O)[C@@H]1O)(OCC(F)(F)F)OCC(F)(F)F [Compound 226, (2R,3S,4R,5R)-2-[bis(2,2,2-trifluoro-ethoxy)phosphoryl-methoxymethyl]-5-[2-chloro-4-(cyclopentyl-amino)pyrrolo[2,3-d]-pyrimidin-7-yl]tetra-hydrofuran-3,4-diol]",< 6.00
9,"CN(C)C(=O)COP(=O)(O)COC[C@H]1O[C@@H](n2ccc3c(NC4CCCC4)nc(Cl)nc32)[C@H](O)[C@@H]1O [Compound 234, [(2R,3S,4R,5R)-5-[2-chloro-4-(cyclopentyl-amino)pyrrolo[2,3-d]-pyrimidin-7-yl]-3,4-dihydroxy-tetrahydro-furan-2-yl]methoxy-methyl-[2-(dimethyl-amino)-2-oxo-ethoxy]-phosphinic acid]",6.00 to 7.00
10,"O=C(OCOP(=O)(O)COC[C@H]1O[C@@H](n2ccc3c(NC4CCCC4)nc(Cl)nc32)[C@H](O)[C@@H]1O)N1CCOCC1 [Compound 237, [(2R,3S,4R,5R)-5-[2-chloro-4-(cyclopentyl-amino)pyrrolo[2,3-d]-pyrimidin-7-yl]-3,4-dihydroxy-tetrahydro-furan-2-yl]methoxy-methyl-(morpholine-4-carbonyloxy-methoxy)phosphinic acid]",7.00 to 8.00
11,"O=C(OCOP(=O)(COC[C@H]1O[C@@H](n2ccc3c(NC4CCCC4)nc(Cl)nc32)[C@H](O)[C@@H]1O)OCOC(=O)N1CCOCC1)N1CCOCC1 [Compound 238, [[(2R,3S,4R,5R)-5-[2-chloro-4-(cyclopentyl-amino)pyrrolo[2,3-d]-pyrimidin-7-yl]-3,4-dihydroxy-tetrahydro-furan-2-yl]methoxy-methyl-(morpholine-4-carbonyloxymeth-oxy)phosphoryl]oxy-methyl morpholine-4-carboxylate]",6.00 to 7.00
12,"O=P(O)(O)COC[C@H]1O[C@@H](n2ccc3c(N[C@@H]4CCNC4)nc(Cl)nc32)[C@H](O)[C@@H]1O [Compound 241, [(2R,3S,4R,5R)-5-[2-chloro-4-[[(3R)-pyrrolidin-3-yl]amino]-pyrrolo[2,3-d]pyrimidin-7-yl]-3,4-dihydroxy-tetrahydrofuran-2-yl]-methoxymethylphos-phonic acid]",6.00 to 7.00
13,"O=P(O)(O)COC[C@H]1O[C@@H](n2ccc3c(N[C@H]4CCNC4)nc(Cl)nc32)[C@H](O)[C@@H]1O [Compound 242, [(2R,3S,4R,5R)-5-[2-chloro-4-[[(3S)-pyrrolidin-3-yl]-amino]pyrrolo[2,3-d]-pyrimidin-7-yl]-3,4-dihydroxy-tetrahydro-furan-2-yl]methoxy-methylphosphonic acid]",< 6.00
